Where a SMILES comes first, the peptide text is derived from it. The star is where a group is joined. Myristoyl = CCCCCCCCCCCCCC(=O)*
Columns and labels:
[1] = tested on: TJ proteins occludin and ZO-1 in primary human nasal epithelial cell monolayers; test: Immunofluorescence of TJ proteins occludin and ZO-1, nasal cells (confocal microscopy); type: cell-based; settings: 50 μM peptide, 2 hours
Description: The effect of peptides of the invention on the tight junction structure of human primary nasal and bronchial epithelial cells were evaluated by confocal microscopy as follows. Mucilair™ human primary nasal and bronchial epithelial cells (Epithelix Sarl, Geneva, Switzerland) were incubated with 50 μM of peptide of the invention P1 or comparative peptides C1 and C2 for 2 hours and washed twice with phosphate buffered saline (PBS) (without Ca^2+/Mg^2+) at 37° C. Cells were fixed with methanol/acetone (50:50) for 5 minutes at […], air-dried, and washed with TBST (mixture of tris-buffered saline (TBS) and Polysorbate 20). Cell monolayers were blocked using a solution of 3% bovine serum albumin (BSA) in PBS for 60 minutes at room temperature and incubated with primary antibody against occludin (Cat: 331588, Invitrogen, Zug, Switzerland); dilution (1:200)) and ZO-1 (zonula occludens-1 protein) (Cat: 339194, Invitrogen, Zug, Switzerland); dilution (1:200)) in dilution buffer. Samples were mounted (Vectashield mounting media with DAPI (4′,6-diamidino-2-phenylindole); Vector Laboratories) and assessed within the next 24 hours by using a laser-scanning confocal microscope (CLSM; Plan-Apochromat 63/1.40 (oil) DIC objective, Zeiss Axiovert 100M-LSM 510; Carl Zeiss, Oberkochen, Germany). […]

[2] = tested on: primary human nasal epithelial cell monolayers; test: Permeabilization of fluorescein-conjugated dextran (FD) across nasal epithelial monolayers (cumulative release, Papp); type: cell-based
Description: (§1) To assess the potential effects of peptides of the invention on the permeabilization of therapeutic molecules, fluorescein-conjugated dextrans (FD) were used to as a model for assessing paracellular drug transport (apical to basolateral) across the epithelial monolayer.
(§2) To ensure that the integrity of the monolayer was maintained during the course of the experiment, trans-epithelial electrical resistance (TEER) was measured before and after these studies, as described below.
(§3) Mucilair™ human primary nasal and bronchial epithelial cells (Epithelix sarl, Geneva, Switzerland) were used (Huang et. al., 2013, Toxicol. in Vitro 27: 1151-1156).
(§4) Before each experiment, the culture medium was removed from each compartment and the monolayer was washed once with 200 μl of saline (0.9%) and once with warm Hanks' Balanced Salt Solution (HBSS) (37° C.). In the basolateral compartment, 600 μL of pre-warmed HBSS was placed and the cells were returned to the incubator at 37° C. for 30 minutes to equilibrate. After equilibration, the peptides of the invention were applied to the apical side of an epithelial monolayer 5 minutes prior to the addition of FD solution. Peptide 1 according to the invention (P1 of SEQ ID NO: 2) was tested in comparison with comparative peptides C1 (SEQ ID NO: 4) and C2 (SEQ ID NO: 5). FD having a molecular weight (MW) of 4 and 150 kDa were used.
(§5) All peptides were used at a final concentration of 10 μM. The vehicle was used as a control (CTRL). The FD solution was added to the apical compartment to make a final volume of 200 μl. Samples of 100 μL were taken from the basal compartment of each well every 30 minutes over a period of 150 minutes, with each volume being replaced with equal amount of fresh warm buffer to maintain sink condition. The fluorescence of FD was measured in black 96-well plates using a fluorescence plate reader (BioTek Synergy Mx plate reader, BioTek Instruments GmbH, Lucerne, Switzerland), using excitation and emission wavelengths of 485 and 520 nm, respectively. Cumulative release (ng) corresponds to the actual amount of drug released cumulatively and corresponds to the amount in the suspension medium at any time plus the amount of the drug lost during each sampling.
(§6) Trans-epithelial electrical resistance (TEER): After addition of 200 μl of culture medium to the apical compartment of the tissue cultures, resistance was measured across cultures with an EVOMX volt-ohm-meter (World Precision Instruments UK, Stevenage) in triplicate for each time point. The TEER values (Ω) were converted normalized by using the following formula: TEER (Ωcm^2)=(resistance value (Ω)−100 (Ω))×0.33 (cm^2), where 100Ω is the resistance of the membrane and 0.33 cm^2 is the total surface of the epithelium.
(§7) To assess the role of the membrane penetrating group (myristoyl) in peptides of the invention in the enhancing of the permeability of macromolecules through epithelial cell layers, the permeabilizing capacity of peptide P1 of the invention was compared to a comparative peptide C3 (SEQ ID NO: 6) corresponding to the same peptide without the myristoyl group. The permeabilizing capacity of a peptide P2 (SEQ ID NO: 3) of the invention was also assessed. Uptake experiments and TEER were conducted as described in Example 2.
(§8) To assess the duration of the permeabilization effect of the peptide of the invention, apparent permeability of peptides of various lengths was evaluated as follows. Apparent permeability refers to the amount of released FD at that time point when the sample is collected.
(§9) The tested Peptides, uptake experiments and TEER were as described in Example 2.
(§10) Apparent permeability of FD: The apparent permeability (Papp) of FD was calculated using equation 1: Papp=(dQ/dt)/A*C0 (1)

[3] = tested on: primary human bronchial epithelial cell monolayers; test: Permeabilization of fluorescein-conjugated dextran (FD) across bronchial epithelial monolayers (cumulative release, Papp); type: cell-based
Description: as §1, §2, §3, §4, §5, §6, §7, §8, §9, §10

in vitro = settings: human, Caco-2 cells
Description: (§11) Viability of Caco-2 cells (human intestinal epithelial cell line) was determined by a cell proliferation assay using WST-1 based colorimetric assay. […] WST-1 reagent (diluted 1:10 in cell culture medium) was added as described in the instruction manual (Roche Diagnostics GMBH, Mannheim, Germany). Following 1-3 h incubation at 37° C. with the peptides or controls, absorbance at 450 nm (reference at 690 nm) was measured by a BioTek Synergy Mx plate reader. Percentage of cell viability was calculated based on the absorbance measured relative to that of cells exposed to only culture medium (control group). Sodium dodecyl sulfate (SDS) at 2% was used as a positive control for cell toxicity.

[4] = tested on: OCA_EGFR19del cultures (HCC827 cells); test: Tumor size in OncoCilAir non-small cell lung cancer model; type: cell-based
Description: HCC827 cells (lung adenocarcinoma) mutated in the tyrosine kinase domain of the EGFR (epidermal growth factor receptor) were used (model OncoCilAir™, wherein Non-Small Cell Lung Cancer (NSCLC) cells were tagged with green fluorescent protein (GFP)).
Tumour morphometry was resolved by fluorescence microscopy using a Zeiss Axiocam microscope platform. Growth curves were based on various images were acquired every 2 days and the area of the green fluorescent protein positive (GFP^+) tumour was measured using the Image-Pro Plus Software (MediaCybernetics, Rockville, Md., USA). For each time point, the ratio of the total area occupied by tumours to the size of the insert was calculated and expressed as percentage of day 0, at the start of the treatment (tumor occupancy). Identical analyses settings, i.e. fixed fluorescence intensity threshold and fixed size threshold ([…]) were applied to all processed images. Percentage of tumour growth inhibition was calculated using the formula: (1−[tumour occupancy in treatment group/tumour occupancy in control group]×100).

Caco-2 cells = test: Cell viability, WST-1 based colorimetric assay; settings: 24 hours
Description: as §11

[5] = peptide 10 μM apical, 150 minutes, vs control
[6] = P1 1 μM apical + gefitinib 1 μM apical

CCCCCCCCCCCCCC(=O)N[C@@H](C)C(=O)N[C@@H](CCCNC(=N)N)C(=O)N[C@@H](CCCNC(=N)N)C(=O)N[C@@H](Cc1c[nH]c2ccccc12)C(=O)N[C@@H](CCCNC(=N)N)C(=O)O [Peptide P1, Myr-ARRWR] (Myristoyl-ARRWR-OH)
redistribution of occludin and ZO-1 [1]: causes desired TJ proteins redistribution
permeability of FD of 150 kDa (cumulative release) [2, 5]: significantly increases the permeability
permeability of fluorescein conjugated dextran of 4 kDa (cumulative release) [2, 5]: increased the permeability of the fluorescein conjugated dextran of 4 kDa in a significant manner
Papp for FD of 150 kDa over time ([2]; peptide 10 μM, 150 minutes): immediate increase in the first 30 minutes and steadily decreased therefrom
reversibility of permeabilization of FD 4 kDa (decrease in Papp overtime) ([2]; peptide 10 μM, 150 minutes): reversible
reversibility of the permeabilization effect, FD of 150 kDa ([2]; peptide 10 μM, FIG. 6): Reversibility of the permeabilization effect was also observed
permeability of FD of 150 kDa (cumulative release) [3, 5]: significantly increases the permeability
permeability of fluorescein conjugated dextran of 4 kDa (cumulative release) [3, 5]: increased the permeability of the fluorescein conjugated dextran of 4 kDa in a significant manner
Papp for FD of 150 kDa over time ([3]; peptide 10 μM, 150 minutes): immediate increase in the first 30 minutes and steadily decreased therefrom
reversibility of permeabilization of FD 4 kDa (decrease in Papp overtime) ([3]; peptide 10 μM, 150 minutes): reversible
reversibility of the permeabilization effect, FD of 150 kDa ([3]; peptide 10 μM, FIG. 6): Reversibility of the permeabilization effect was also observed
viability at 24 h, 100 µM (in vitro): 76.7%
effect of combination on tumour size vs gefitinib alone [4, 6]: significantly more efficacious than the gefitinib alone
time at which maximal therapeutic effect was obtained [4, 6]: 3 days
effect of combination on tumour progression vs gefitinib alone ([4]; P1 1 μM apical + gefitinib 1 μM basal): significantly potentiated the effects of the drug on tumour progression
effect of combination on tumour progression vs gefitinib alone ([4]; P1 1 μM apical + gefitinib 5 μM basal): significantly potentiated the effects of the drug on tumour progression
effect on tumor size ([4]; P1 alone 1 μM apical, 6 expositions over 14 days, vs DMSO): had no effect on tumor size
toxicity on Caco-2 cells (Caco-2 cells; 50 μM): did not show any toxicity
concentration non-toxic to cells (Caco-2 cells): at least 50 μM

From US20210246164A1, “PEPTIDIC PROTEIN KINASE C INHIBITORS AND USES THEREOF” (UNIVERSITE DE GENEVE, priority 2016, published 2021)
